The test addresses T1, human factor Xa (Homo sapiens, UniProt P00742).
T1 construct: 25 μl human factor Xa (Enzyme Research Laboratories, Inc; South Bend, Ind.); purchased Enzyme Research Laboratories, Inc; South Bend, Ind
Description: Factor Xa assay (chromogenic, purified enzyme). The format is biochemical. The note with it: inhibition constant for factor Xa; chromogenic substrate S-2765 140 μM, enzyme 0.5 nM, 25° C., pH 7.8; Ki=IC50/{1+(substrate concentration/Km)}; read-out: Ki(FXa). From the text:
The ability of the compound of formulae I, Ib and Ic to inhibit factor Xa or factor VIIa or other enzymes like thrombin, plasmin, or trypsin can be assessed by determining the concentration of the compound of the formulae I, Ib and Ic that inhibits enzyme activity by 50%, i.e. the IC50 value, which was related to the inhibition constant Ki. Purified enzymes were used in chromogenic assays. The concentration of inhibitor that causes a 50% decrease in the rate of substrate hydrolysis was determined by linear regression after plotting the relative rates of hydrolysis (compared to the uninhibited control) versus the log of the concentration of the compound of formulae I, Ib and Ic. For calculating the inhibition constant Ki, the IC50 value was corrected for competition with substrate using the formula wherein Km is the Michaelis-Menten constant (Chen and Prusoff, Biochem.
Ki=IC50/{1+(substrate concentration/Km)}
Pharmacol. 22 (1973) 3099-3108; I. H. Segal, Enzyme Kinetics, 1975, John Wiley & Sons, New York, 100-125; which were incorporated herein by reference).
The IC50 was determined by combining in appropriate wells of a Costar half-area microtiter plate 25 μl human factor Xa (Enzyme Research Laboratories, Inc.; South Bend, Ind.) in TBS-PEG; 40 μl 10% (v/v) DMSO in TBS-PEG (uninhibited control) or various concentrations of the compound to be tested diluted in 10% (v/v) DMSO in TBS-PEG; and substrate S-2765 (N(α)-benzyloxycarbonyl-D-Arg-Gly-L-Arg-p-nitroanilide; Kabi Pharmacia, Inc.; Franklin, Ohio) in TBS-PEG.
The assay was performed by pre-incubating the compound of formulae I, Ib and Ic plus enzyme for 10 min. Then the assay was initiated by adding substrate to obtain a final volume of 100 μl. The initial velocity of chromogenic substrate hydrolysis was measured by the change in absorbance at 405 nm using a Bio-tek Instruments kinetic plate reader (Ceres UV900HDi) at 25° C. during the linear portion of the time course (usually 1.5 min after addition of substrate). The enzyme concentration was 0.5 nM and substrate concentration was 140 μM.
The inhibitory activity towards factor VIIa/tissue factor activity was determined using a chromogenic assay essentially as described previously (J. A. Ostrem et al., Biochemistry 37 (1998) 1053-1059 which was incorporated herein by reference). Kinetic assays were conducted at 25° C. in half-area microtiter plates (Costar Corp., Cambridge, Mass.) using a kinetic plate reader (Molecular Devices Spectramax 250). A typical assay consisted of 25 μl human factor VIIa and TF (5 nM and 10 nM, respective final concentration) combined with 40 μl of inhibitor dilutions in 10% DMSO/TBS-PEG buffer (50 mM Tris, 15 mM NaCl, 5 mM CaCl2, 0.05% PEG 8000, pH 8.15). Following a 15 minute preincubation period, the assay was initiated by the addition of 35 μl of the chromogenic substrate S-2288 (D-Ile-Pro-Arg-p-nitroanilide, Pharmacia Hepar Inc., 500 μM final concentration).
T1 sequence (P00742 235-488 limits assumed): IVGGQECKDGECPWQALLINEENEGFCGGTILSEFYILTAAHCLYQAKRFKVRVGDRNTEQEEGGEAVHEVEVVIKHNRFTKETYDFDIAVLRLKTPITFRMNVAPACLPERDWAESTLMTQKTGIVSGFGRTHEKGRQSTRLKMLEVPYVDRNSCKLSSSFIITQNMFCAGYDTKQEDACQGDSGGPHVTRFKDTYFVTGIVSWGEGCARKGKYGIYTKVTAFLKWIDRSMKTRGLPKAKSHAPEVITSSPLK
T1 sequence (P00742 41-179 partner limits assumed): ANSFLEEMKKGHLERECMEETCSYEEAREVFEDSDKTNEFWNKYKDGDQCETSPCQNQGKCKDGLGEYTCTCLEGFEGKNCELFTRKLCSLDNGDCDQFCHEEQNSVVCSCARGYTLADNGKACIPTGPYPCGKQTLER
As for `CC(C)N1CCC(NC(=O)c2cc(C(=O)OCC(=O)O)nn2Cc2cc(-c3ccc(Cl)s3)on2)CC1` [Example 111, 1-[5-(5-Chloro-thiophen-2-yl)-isoxazol-3-ylmethyl]-5-(1-isopropyl-piperidin-4-ylcarbamoyl)-1H-pyrazole-3-carboxylic acid carboxymethyl ester], the Ki is 49 nM.
Turning to `CC(C)N1CCC(NC(=O)c2cc(C(=O)NCCN3CCNC3=O)nn2Cc2cc(-c3ccc(Cl)s3)on2)CC1` [Example 73, 1-[5-(5-Chloro-thiophen-2-yl)-isoxazol-3-ylmethyl]-1H-pyrazole-3,5-dicarboxylic acid 5-[(1-isopropyl-piperidin-4-yl)-amide] 3-{[2-(2-oxo-imidazolidin-1-yl)-ethyl]-amide}], the Ki worked out at 83 nM.
Turning to `CC(C)N1CCC(NC(=O)c2cc(C(=O)N3CCNC(=O)C3)nn2Cc2cc(-c3ccc(Cl)s3)on2)CC1` [Example 41, 2-[5-(5-Chloro-thiophen-2-yl)-isoxazol-3-ylmethyl]-5-(3-oxo-piperazine-1-carbonyl)-2H-pyrazole-3-carboxylic acid (1-isopropyl-piperidin-4-yl)-amide], the Ki worked out at 81 nM.
In the case of `CC(C)N1CCC(NC(=O)c2cc(-c3ccco3)n(Cc3cc(-c4ccc(Cl)s4)on3)n2)CC1` [Example 84, 1-[5-(5-Chloro-thiophen-2-yl)-isoxazol-3-ylmethyl]-5-furan-2-yl-1H-pyrazole-3-carboxylic acid (1-isopropyl-piperidin-4-yl)-amide], the Ki was 42 nM.
The same measure for `CC(C)N1CCC(NC(=O)c2cc(C(=O)NCC(F)(F)F)nn2Cc2cc(-c3ccc(Cl)s3)on2)CC1` [Example 74, 1-[5-(5-Chloro-thiophen-2-yl)-isoxazol-3-ylmethyl]-1H-pyrazole-3,5-dicarboxylic acid 5-[(1-isopropyl-piperidin-4-yl)-amide] 3-[(2,2,2-trifluoro-ethyl)-amide]]: 86 nM; for `CC(C)N1CCC(NC(=O)c2cc(C(=O)NC3CCC3)nn2CC(=O)Nc2ccc(Cl)cn2)CC1` [Example 52, 1-[(5-Chloro-pyridin-2-ylcarbamoyl)-methyl]-1H-pyrazole-3,5-dicarboxylic acid 3-cyclobutylamide 5-[(1-isopropyl-piperidin-4-yl)-amide]]: 16 nM.
In the case of `CC(C)N1CCC(NC(=O)c2cc(C(=O)N3CCC(O)C3)nn2Cc2cc(-c3ccc(Cl)s3)on2)CC1` (stereo not shown) [Example 36, 2-[5-(5-Chloro-thiophen-2-yl)-isoxazol-3-ylmethyl]-5-(3-hydroxy-pyrrolidine-1-carbonyl)-2H-pyrazole-3-carboxylic acid (1-isopropyl-piperidin-4-yl)-amide], the Ki turned out to be 122 nM.
Consider `CC(C)N1CCC(NC(=O)c2cc(C(=O)O)n(Cc3cc(-c4ccc(Cl)s4)on3)n2)CC1` [Example 85, 2-[5-(5-Chloro-thiophen-2-yl)-isoxazol-3-ylmethyl]-5-(1-isopropyl-piperidin-4-ylcarbamoyl)-2H-pyrazole-3-carboxylic acid], for which the Ki amounted to 185 nM.
Then `CC(C)N1CCC(NC(=O)c2cc(C(=O)NC3CC3)nn2Cc2cc(-c3ccc(Cl)s3)on2)CC1` [Example 45, 1-[5-(5-Chloro-thiophen-2-yl)-isoxazol-3-ylmethyl]-1H-pyrazole-3,5-dicarboxylic acid 3-cyclopropylamide 5-[(1-isopropyl-piperidin-4-yl)-amide]], with 61 nM; and `CC(C)N1CCC(NC(=O)c2cc(C(=O)N3CCCOCC3)nn2Cc2cc(-c3ccc(Cl)s3)on2)CC1` [Example 42, 2-[5-(5-Chloro-thiophen-2-yl)-isoxazol-3-ylmethyl]-5-([1,4]oxazepane-4-carbonyl)-2H-pyrazole-3-carboxylic acid (1-isopropyl-piperidin-4-yl)-amide], with 84 nM; and `CC(C)N1CCC(NC(=O)c2cc(C(=O)N(CCO)CCO)nn2Cc2cc(-c3ccc(Cl)s3)on2)CC1` [Example 88, 1-[5-(5-Chloro-thiophen-2-yl)-isoxazol-3-ylmethyl]-1H-pyrazole-3,5-dicarboxylic acid 3-[bis-(2-hydroxy-ethyl)-amide] 5-[(1-isopropyl-piperidin-4-yl)-amide]], with 106 nM.
Then `CC(C)N1CCC(NC(=O)c2cc(C(=O)NCCS(N)(=O)=O)n(Cc3cc(-c4ccc(Cl)s4)on3)n2)CC1` [Example 87, 1-[5-(5-Chloro-thiophen-2-yl)-isoxazol-3-ylmethyl]-1H-pyrazole-3,5-dicarboxylic acid 3-[(1-isopropyl-piperidin-4-yl)-amide] 5-[(2-sulfamoyl-ethyl)-amide]], with 181 nM.
Then `CC(C)N1CCC(NC(=O)c2cc(C(=O)N3CCOC3=O)nn2Cc2cc(-c3ccc(Cl)s3)on2)CC1` [Example 72, 2-[5-(5-Chloro-thiophen-2-yl)-isoxazol-3-ylmethyl]-5-(2-oxo-oxazolidine-3-carbonyl)-2H-pyrazole-3-carboxylic acid (1-isopropyl-piperidin-4-yl)-amide], with 92 nM; and `CC(C)N1CCC(NC(=O)c2cc(C(=O)N3CC[C@H]3C(=O)O)nn2Cc2cc(-c3ccc(Cl)s3)on2)CC1` [Example 63, 1-[1-[5-(5-Chloro-thiophen-2-yl)-isoxazol-3-ylmethyl]-5-(1-isopropyl-piperidin-4-ylcarbamoyl)-1H-pyrazole-3-carbonyl]-(2S)-azetidine-2-carboxylic acid], with 134 nM; and `O=C(Nc1ccc(N2CCOCC2=O)cc1)c1cc(-c2ccco2)n(Cc2cc(-c3ccc(Cl)s3)on2)n1` [Example 99, 1-[5-(5-Chloro-thiophen-2-yl)-isoxazol-3-ylmethyl]-5-furan-2-yl-1H-pyrazole-3-carboxylic acid [4-(3-oxo-morpholin-4-yl)-phenyl]-amide], with 11 nM.
For `CC(C)N1CCC(NC(=O)c2cc(-c3ccc(Cl)s3)n(Cc3cc(-c4ccc(Cl)s4)on3)n2)CC1` [Example 6, 5-(5-Chloro-thiophen-2-yl)-1-[5-(5-chloro-thiophen-2-yl)-isoxazol-3-ylmethyl]-1H-pyrazole-3-carboxylic acid (1-isopropyl-piperidin-4-yl)-amide], the inhibitory constant (Ki) is 491 nM.
As to `CC(C)OC(=O)CNC(=O)c1cc(C(=O)NC2CCN(C(C)C)CC2)n(Cc2cc(-c3ccc(Cl)s3)on2)n1` [Example 90, {[1-[5-(5-Chloro-thiophen-2-yl)-isoxazol-3-ylmethyl]-5-(1-isopropyl-piperidin-4-ylcarbamoyl)-1H-pyrazole-3-carbonyl]-amino}-acetic acid isopropyl ester], the Ki turned out to be 240 nM.
With `CC(C)N1CCC(NC(=O)c2cc(OCC(F)(F)F)nn2CC(=O)Nc2ccc(Cl)cn2)CC1` [Example 105, 2-[(5-Chloro-pyridin-2-ylcarbamoyl)-methyl]-5-(2,2,2-trifluoro-ethoxy)-2H-pyrazole-3-carboxylic acid (1-isopropyl-piperidin-4-yl)-amide], the inhibitory constant (Ki) was found to be 21 nM.
Then `CC(C)OC(=O)CNC(=O)c1cc(C(=O)NC2CCN(C(C)C)CC2)n(CC(=O)Nc2ccc(Cl)cn2)n1` [Example 92, {[1-[(5-Chloro-pyridin-2-ylcarbamoyl)-methyl]-5-(1-isopropyl-piperidin-4-ylcarbamoyl)-1H-pyrazole-3-carbonyl]-amino}-acetic acid isopropyl ester], with 41 nM.

By Ki is commonly meant the dissociation constant of the complex between target and ligand, obtained from inhibition or displacement.

(Values after patent publication US20080306056A1, “PYRAZOLE-DERIVATIVES AS FACTOR Xa INHIBITORS” (SANOFI-AVENTIS DEUTSCHLAND GMBH, priority 2002, published 2008).)
